Experiments:
Type in all cases: physicochemical
[1] = Quat removal from brine: additive, then heptane extraction, water layer analyzed for quat (Examples 1-4); conditions: brine of 97.50 g water and 2.50 μg sodium chloride dosed with 1.52 g methanolic quat solution; 90 ml sample; 1.00 g DDBSA or 0.90 g oleic acid; shaken 1 minute with 10 ml heptane; centrifuged
Experimental: A brine solution comprising 97.50 g of water and […] of sodium chloride was dosed with 1.52 g of a methanolic solution of a quat (solution contains 33% methanol and 67% RE 4136 quaternary ammonium compound available from Baker Petrolite). A 90 ml sample of the water, sodium chloride, quat solution was shaken by hand for 1 minute with 10 ml of heptane. The mixture is centrifuged to separate the layers and the water layer was analyzed for quat. The above test was repeated but in this case the sample was dosed with 1.00 g of dodecylbenzenesulfonic acid (DDBSA) or 0.90 g of oleic acid (as indicated) before the addition of heptane and shaken by hand. These two cases required prolonged centrifugation to separate the phases. Again, the water phase was analyzed for quat. The quat concentration is expressed in ppm of methanolic quat solution.

[2] = Quat removal from brine: additive without heptane, oil layer separated, water layer washed with heptane (Examples 5-6); conditions: same brine/quat solution, 90 ml; 0.45 g p-TSA or 0.74 g naphthenic acids; shaken 1 minute without heptane; water layer washed with 10 ml heptane
Experimental: In a second set of tests, a 90 ml sample of the above water, sodium chloride and quat solution was dosed with 0.45 g of para-toluenesulfonic acid (p-TSA) or 0.74 g of a mixture of naphthenic acids (as indicated). In this test, the mixture was shaken 1 minute by hand in the absence of heptane. The samples were centrifuged. An oil layer separated and remained at the top of the samples. The slightly hazy water layer was removed. The water layer was washed with 10 ml of heptane and again centrifuged. The clear water layer was analyzed for quat.

[3] = Quat removal from 16% sodium chloride brine suspension (Examples 7-8); conditions: brine of 84 g water and 16 g sodium chloride with 1.52 g quat solution, used as suspension; 90 ml; 0.45 g p-TSA or 0.74 g naphthenic acids
Experimental: In a third set of tests, a brine solution comprising 84 g of water and 16 g of sodium chloride was dosed with 1.52 g of the above quat solution. In this case, the quat separates to some extent from the brine on standing and was used immediately in the next step as a suspension. A 90 ml sample of this suspension was dosed with 0.45 g of p-TSA or 0.74 g of a mixture of naphthenic acids (as indicated). The samples were treated as above and analyzed for quat.

Row | Compound | ppm of methanolic quat solution in water [1] | ppm of methanolic quat solution in water [2] | ppm of methanolic quat solution in water [3]
1 | CCCCCCCCCCCCc1ccc(S(=O)(=O)O)cc1 [DDBSA, dodecylbenzenesulfonic acid] | 76 ppm | – | –
2 | CCCCCCC [Heptane only, heptane] | 15,000 ppm | – | –
3 | CCCCCCCC/C=C\CCCCCCCC(=O)O [Oleic acid, oleic acid] | 121 ppm | – | –
4 | Cc1ccc(S(=O)(=O)O)cc1 [p-TSA, para-toluenesulfonic acid] | – | 178 ppm | 88 ppm
